Consider ten compounds from ChEMBL document CHEMBL4665735, “Discovery of a d-pro-lys peptidomimetic inhibitor of MMP9: Addressing the gelatinase selectivity beyond S1' subsite” (Bioorg Med Chem Lett, 2020).

Assay [1] has as its target 72 kDa type IV collagenase (Homo sapiens, UniProt P08253). Nature of the assay: Inhibition of MMP2 (unknown origin) using Mca-Lys-Pro-Leu-GlyLeu-Dpa-Ala-Arg-NH2 as substrate by fluorometric assay.
Assay [2] concerns the target Matrix metalloproteinase-9 (Homo sapiens, UniProt P14780). Nature of the assay: Inhibition of MMP9 (unknown origin) using Mca-Lys-Pro-Leu-GlyLeu-Dpa-Ala-Arg-NH2 as substrate by fluorometric assay.

Chain of 72 kDa type IV collagenase (P08253 whole entry): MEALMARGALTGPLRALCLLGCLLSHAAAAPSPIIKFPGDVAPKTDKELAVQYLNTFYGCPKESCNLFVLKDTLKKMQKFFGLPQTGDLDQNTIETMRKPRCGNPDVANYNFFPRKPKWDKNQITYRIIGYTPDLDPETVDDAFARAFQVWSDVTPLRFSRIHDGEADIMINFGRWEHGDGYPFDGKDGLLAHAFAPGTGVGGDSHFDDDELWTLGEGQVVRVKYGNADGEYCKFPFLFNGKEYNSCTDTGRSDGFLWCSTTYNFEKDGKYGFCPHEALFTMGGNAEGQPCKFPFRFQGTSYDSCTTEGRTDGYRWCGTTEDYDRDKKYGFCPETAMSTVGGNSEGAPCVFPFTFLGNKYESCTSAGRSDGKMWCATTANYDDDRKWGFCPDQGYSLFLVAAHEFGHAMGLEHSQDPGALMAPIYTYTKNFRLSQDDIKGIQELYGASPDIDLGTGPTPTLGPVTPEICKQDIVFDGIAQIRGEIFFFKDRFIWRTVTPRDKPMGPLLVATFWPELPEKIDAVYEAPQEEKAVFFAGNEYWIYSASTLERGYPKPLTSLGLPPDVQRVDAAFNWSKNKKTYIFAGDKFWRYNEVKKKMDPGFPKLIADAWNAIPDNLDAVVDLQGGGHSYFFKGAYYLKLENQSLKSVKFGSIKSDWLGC
Chain of Matrix metalloproteinase-9 (P14780 whole entry): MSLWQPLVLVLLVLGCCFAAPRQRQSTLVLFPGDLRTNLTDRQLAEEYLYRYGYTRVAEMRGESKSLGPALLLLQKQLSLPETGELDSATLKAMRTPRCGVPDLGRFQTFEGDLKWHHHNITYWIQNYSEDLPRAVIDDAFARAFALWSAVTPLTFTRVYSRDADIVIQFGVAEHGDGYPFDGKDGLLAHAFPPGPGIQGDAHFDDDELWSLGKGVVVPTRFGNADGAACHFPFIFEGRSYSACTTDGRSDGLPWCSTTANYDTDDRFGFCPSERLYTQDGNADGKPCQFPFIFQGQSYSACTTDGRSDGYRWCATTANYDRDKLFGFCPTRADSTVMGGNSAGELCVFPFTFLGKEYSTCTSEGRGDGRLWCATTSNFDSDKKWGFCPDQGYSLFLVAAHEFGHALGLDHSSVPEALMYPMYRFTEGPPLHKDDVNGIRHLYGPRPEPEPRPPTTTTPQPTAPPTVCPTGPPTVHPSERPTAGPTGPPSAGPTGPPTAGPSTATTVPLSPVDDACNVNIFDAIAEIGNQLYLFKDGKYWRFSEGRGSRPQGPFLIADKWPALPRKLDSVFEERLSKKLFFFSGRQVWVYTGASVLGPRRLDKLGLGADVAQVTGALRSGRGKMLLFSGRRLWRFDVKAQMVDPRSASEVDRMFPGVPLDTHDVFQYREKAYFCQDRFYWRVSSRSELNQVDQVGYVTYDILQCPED

Broadly, the IC50 is the concentration that inhibits the measured activity by half. A lower IC50 goes with greater potency. With `COc1ccc(S(=O)(=O)N2C[C@H](NC(=O)CCCNC(=O)OC(C)(C)C)C[C@@H]2C(=O)NO)cc1`, the figures for the IC50 in assay [1] and in assay [2] were 91 nM and 49 nM, respectively.
Consider `COc1ccc(S(=O)(=O)N2CCC[C@@H]2C(=O)NO)cc1`, for which, in assay [2], the midpoint of inhibition, the IC50, lay at 22 nM.
For `COc1ccc(S(=O)(=O)N2C[C@H](NC(=O)[C@@H](N)CCCCN)C[C@@H]2C(=O)NO)cc1`, the results for the IC50 in assay [1] and in assay [2] were 1260 nM and 5.7 nM, respectively.
The corresponding values for `COc1ccc(S(=O)(=O)N2C[C@H](NC(=O)[C@H](CCCCN)NC(=O)OC(C)(C)C)C[C@@H]2C(=O)NO)cc1` are 432 nM and 27 nM.
For `COc1ccc(S(=O)(=O)N2C[C@H](NC(=O)CCCN)C[C@@H]2C(=O)NO)cc1` the same measures were 302 nM and 53 nM.
With `COc1ccc(S(=O)(=O)N2C[C@H](NC(=O)[C@@H](N)CCCN)C[C@@H]2C(=O)NO)cc1`, the IC50 was determined as 15 nM in assay [1] and 154 nM in assay [2].
Turning to `COc1ccc(S(=O)(=O)N2C[C@H](NC(=O)[C@H](CCCN)NC(=O)OC(C)(C)C)C[C@@H]2C(=O)NO)cc1`, the IC50 was 1320 nM in assay [1] and 3420 nM in assay [2].
The corresponding values for `COc1ccc(S(=O)(=O)N2C[C@H](NC(=O)C(C)(C)C)C[C@@H]2C(=O)NO)cc1` are 26 nM and 13 nM.
For `CCCC[C@H](N)C(=O)N[C@@H]1C[C@H](C(=O)NO)N(S(=O)(=O)c2ccc(OC)cc2)C1` the same measures were 62 nM and 98 nM.
The corresponding values for `CCCC[C@H](NC(=O)OC(C)(C)C)C(=O)N[C@@H]1C[C@H](C(=O)NO)N(S(=O)(=O)c2ccc(OC)cc2)C1` are 87 nM and 131 nM.
